Measurements as given in patent publication US20250177351A1, “ISOINDOLINE COMPOSITIONS AND METHODS FOR TREATING NEURODEGENERATIVE DISEASE” (Cognition Therapeutics, Inc., priority 2022, published 2025).
Entries after “also recorded” stand apart in the source; their conditions may differ. Marks after values point to notes of the source that are not given here.

What was measured:
[1] = Phase 1b/2a clinical trial (COG0102): safety, tolerability, exploratory cognitive outcomes; type: in vivo, human
Description: Safety and pharmacokinetics were primary objectives of the study, with changes in molecular biomarkers and cognitive outcomes identified as an exploratory objective.
Plasma and CSF protein expression were measured by LC/MSMS in samples drawn prior to dosing (Day 0) and at end of dosing (Day 28) and were compared within each patient and between dosing groups.
(§1) COG0102 clinical trial: This trial (ClinicalTrials.gov NCT02907567) was a randomized, double-blind, placebo-controlled clinical trial in mild to moderate Alzheimer's patients (MMSE 18-26) (See FIG. 1 for clinical trial design). The trial was conducted at six sites in Australia. Patients were randomized into placebo (n=5) or CT1812-treated groups: 90 mg (n=4), 280 mg (n=5) or 560 mg (n=5) and treated once daily for 28 days. Clinical chemistry was done at Sydpath (Sydney, AU). Pharmacokinetics were done at CPR Pharma Services (Adelaide, AU). Cerebrospinal fluid samples were taken at screening and day 21-28 of treatment and aliquoted. Plasma samples were taken at screening or Day 1 (one sample) and day 14-28, then spun down to separate plasma and aliquoted. One set of CSF samples was analyzed for Alzheimer's disease biomarkers; protein measurements (Aβ42, Aβ40, total tau, tau phosphorylated at threonine 181 (phosphorylated tau), NFL and neurogranin) were performed using commercially available ELISA assays from Fujirebio according to the manufacturer's instructions (INNOTEST β-AMYLOID(1-42), INNOTEST β-AMYLOID(1-40), INNOTEST hTau Ag, INNOTEST PHOSPHO-TAU(181P), Uman Diagnostics NFL assay). Neurogranin was measured with a sandwich ELISA method using antibodies Ng2 and Ng22 developed at the University of Gotteborg (Kvartsberg et al. 2015). Identical aliquots of CSF, and plasma were analyzed for protein expression changes via LC/MSMS at Caprion (see below).

[2] = target: T1, sigma-2 receptor complex (Mus musculus, UniProt Q8VD00); assay: Projected receptor occupancy from human CSF concentrations, based on mouse Alzheimer's disease models; type: in vivo
T1 construct: from tissue; host or cells: brain, in vivo (projection from human CSF concentrations; occupancy itself determined in transgenic mouse brain)
T1 sequence (Q8VD00 1-176): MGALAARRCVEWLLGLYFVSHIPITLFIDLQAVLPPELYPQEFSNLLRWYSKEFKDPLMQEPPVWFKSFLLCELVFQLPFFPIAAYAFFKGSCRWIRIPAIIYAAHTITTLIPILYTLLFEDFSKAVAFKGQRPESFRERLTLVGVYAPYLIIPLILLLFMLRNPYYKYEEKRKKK
Description: Horizontal lines indicate projected receptor occupancy based on concentration and receptor occupancy determined in pre-clinical mouse Alzheimer's disease models.
At the 840 mg dose, CSF levels reached those associated with 98% receptor occupancy.

[3] = tested on: CSF biomarkers (Aβ42, Aβ40, total tau, phosphorylated tau, NFL and neurogranin); assay: Phase 1b/2a trial: CSF Alzheimer's disease biomarkers by ELISA; type: in vivo, human; details: AD patients, before and after treatment
Description: as §1, with “Plasma samples were taken at screening or Day 1 (one sample) and day 14-28, then spun down to separate plasma and aliquoted.” left out

[4] = AD patients, 28 days, 90 mg (as in Table 3)
[5] = AD patients, 28 days, 90 mg (n = 4)
[6] = AD patients, 28 days, 280 mg (as in Table 3)
[7] = AD patients, 28 days, 280 mg (n = 5)
[8] = AD patients, 28 days, 560 mg (as in Table 3)
[9] = AD patients, 28 days, 560 mg (n = 5)

SMILES: CC(C)(C)Oc1cc(CCC(C)(C)N2Cc3ccc(S(C)(=O)=O)cc3C2)ccc1O [CT1812]
- patients with lymphocytopenia ([1]; AD patients, 560 mg, 3 mild, resolved by end of study): Four
- ALT in one participant ([1]; AD patients, 560 mg, resolved by end of study, no increase in bilirubin): ~4.7 ×ULN
- tolerability ([1]; AD patients, 90, 280 and 560 mg, 28 days): well tolerated with no drug-related significant adverse events reported; also recorded: generally safe and well tolerated at all doses
- Headache [1, 4]: 1 (25%) n (%)
- Lymphocytopenia [1, 4]: 0 (0%) n (%)
- Nausea [1, 4]: 0 (0%) n (%)
- Vomiting [1, 4]: 0 (0%) n (%)
- Mild TEAEs [1, 5]: 4 (100%) n (%)
- Moderate TEAEs [1, 5]: 0 (0%) n (%)
- SAEs [1, 5]: 0 (0%) n (%)
- Severe TEAEs [1, 5]: 0 (0%) n (%)
- TEAEs [1, 5]: 3 (75%) n (%)
- Headache [1, 6]: 0 (0%) n (%)
- Lymphocytopenia [1, 6]: 0 (0%) n (%)
- Nausea [1, 6]: 0 (0%) n (%)
- Vomiting [1, 6]: 0 (0%) n (%)
- Mild TEAEs [1, 7]: 3 (60%) n (%)
- Moderate TEAEs [1, 7]: 1 (20%) n (%)
- SAEs [1, 7]: 0 (0%) n (%)
- Severe TEAEs [1, 7]: 0 (0%) n (%)
- TEAEs [1, 7]: 4 (80%) n (%)
- Headache [1, 8]: 2 (40%) n (%)
- Lymphocytopenia [1, 8]: 3 (60%)* n (%)
- Nausea [1, 8]: 2 (40%) n (%)
- Vomiting [1, 8]: 2 (40%) n (%)
- Mild TEAEs [1, 9]: 5 (100%) n (%)
- Moderate TEAEs [1, 9]: 3 (60%) n (%)
- SAEs [1, 9]: 0 (0%) n (%)
- Severe TEAEs [1, 9]: 0 (0%) n (%)
- TEAEs [1, 9]: 5 (100%) n (%)
- receptor occupancy at 560 mg ([2]; 560 mg dose, read-out: receptor occupancy in transgenic mouse brain associated with human CSF level): 95%
- receptor occupancy in mouse brain equivalent to average human CSF concentrations ([2]; 560 mg-840 mg dose range, 1.5 hr post-dose): 97-98%
- receptor occupancy at 840 mg ([2]; 840 mg dose, read-out: receptor occupancy associated with human CSF level): 98%
- biomarker levels (Aβ, tau, NFL) in CSF [3]: remain unchanged
